Results published in patent US4667020A, “Aromatic disazo dyes and liquid-crystalline materials containing these dyes” (BASF Aktiengesellschaft, priority 1984, dated 1987).

What was measured:
[1] = degree of order S in liquid crystal mixture; type: physicochemical
Experimental: (§1) The degree of order S measured at room temperature, the solubility L, likewise determined at room temperature, and the Merck liquid crystal mixtures used are summarized in Table 1 for the Examples 1, 2 and 4-12.
The degree of order S was determined in commercial measuring cells with a homogeneous edge orientation, using the known equation [formula] (polyimide). The dichroic ratio CR was determined by measuring the extinctions E.parallel. (measurement with light polarized parallel to the preferred direction of the nematic phase) and E.perp. (measurement with light polarized at right angles to the preferred direction of the nematic phase) and using the relationship [formula] the dye concentration being chosen so that E.parallel. was from 1 to 2. The measurements were carried out on a Beckmann Acta CIII spectrophotometer.

[2] = solubility L in liquid crystal mixture; type: physicochemical; conditions: 1 week stirring
Experimental: as §1
The solubility was determined as follows:
50 mg of the particular dye were stirred in 1 ml of liquid-crystalline mixture for 1 week at room temperature, the saturated solution was separated from the residue by centrifuging, and the solubility was determined by comparison of the extinctions.

[3] = liquid crystal mixture ZLI 1840
[4] = liquid crystal mixture ZLI 1957/5
[5] = liquid crystal mixture ZLI 2452

SMILES: CCCCc1nnc(-c2ccc(N=Nc3cc(C)c(N=Nc4ccc(OCc5ccc(C6CCC(CC)CC6)cc5)cc4C)cc3C)cc2)o1 (stereo not drawn) [Example 1]
- Degree of order S (at room temp.) [1, 3]: 0.76
- Degree of order S (at room temp.) [1, 4]: 0.76
- Solubility L (at room temp.) [2, 3]: 1.6%
- Solubility L (at room temp.) [2, 4]: 1.3%

SMILES: CCCCSc1nnc(-c2ccc(N=Nc3cc(C)c(N=Nc4ccc(N(C)CCCC)cc4)cc3C)cc2)s1 [Example 2]
- Degree of order S (at room temp.) [1, 4]: 0.74
- Solubility L (at room temp.) [2, 4]: 1.1%

SMILES: Cc1cc(N=Nc2ccc(N(C)C)cc2)c(C)cc1N=Nc1ccc(-c2nnc(SCc3ccccc3)s2)cc1 [Example 4]
- Degree of order S (at room temp.) [1, 3]: 0.78
- Solubility L (at room temp.) [2, 3]: < 0.2%

SMILES: CCCCc1nnc(-c2ccc(N=Nc3cc(C)c(N=Nc4ccc(N(C)CCCC)cc4)cc3C)cc2)o1 [Example 5]
- Degree of order S (at room temp.) [1, 3]: 0.73
- Degree of order S (at room temp.) [1, 4]: 0.73
- Solubility L (at room temp.) [2, 3]: 1.4%
- Solubility L (at room temp.) [2, 4]: 1.3%

SMILES: CCCCC(CC)c1nnc(-c2ccc(N=Nc3cc(C)c(N=Nc4ccc(N(C)CCCC)cc4)cc3C)cc2)o1 (stereo not drawn) [Example 6]
- Degree of order S (at room temp.) [1, 4]: 0.68
- Solubility L (at room temp.) [2, 4]: > 5%

SMILES: CCOC(=O)c1sc(-c2ccc(N=Nc3ccc(N=Nc4ccc(N(C)C)cc4)c4ccccc34)cc2)nc1C [Example 7]
- Degree of order S (at room temp.) [1, 3]: 0.74
- Solubility L (at room temp.) [2, 3]: 1.4%

SMILES: CCCCSc1nnc(-c2ccc(N=Nc3ccc(N=Nc4ccc(N(C)C)cc4)c4ccccc34)cc2)s1 [Example 8]
- Degree of order S (at room temp.) [1, 3]: 0.76
- Degree of order S (at room temp.) [1, 4]: 0.78
- Solubility L (at room temp.) [2, 3]: 1.3%
- Solubility L (at room temp.) [2, 4]: 0.5%

SMILES: CCCCSc1nnc(-c2ccc(N=Nc3ccc(N=Nc4ccc(N(C)CCCC)cc4)c4ccccc34)cc2)s1 [Example 9]
- Degree of order S (at room temp.) [1, 3]: 0.79
- Degree of order S (at room temp.) [1, 4]: 0.77
- Solubility L (at room temp.) [2, 3]: 0.6%
- Solubility L (at room temp.) [2, 4]: 0.3%

SMILES: CCCCc1nnc(-c2ccc(N=Nc3ccc(N=Nc4ccc(N(C)CCCC)cc4)c4ccccc34)cc2)o1 [Example 10]
- Degree of order S (at room temp.) [1, 4]: 0.74
- Solubility L (at room temp.) [2, 4]: 1.2%

SMILES: CCCCC(CC)c1nnc(-c2ccc(N=Nc3ccc(N=Nc4ccc(N(C)CCCC)cc4)c4ccccc34)cc2)o1 (stereo not drawn) [Example 11]
- Degree of order S (at room temp.) [1, 4]: 0.74
- Solubility L (at room temp.) [2, 4]: > 5%

SMILES: CCCCC(CC)c1nnc(-c2ccc(N=Nc3ccc(N=Nc4ccc(NCC)c5ccccc45)c4ccccc34)cc2)o1 (stereo not drawn) [Example 12]
- Degree of order S (at room temp.) [1, 4]: 0.71
- Solubility L (at room temp.) [2, 4]: 0.8%

SMILES: CCCCCCCCSc1nnc(-c2ccc(N=Nc3ccc(N=Nc4ccc(N(C)CCCC)cc4)c4ccccc34)cc2)s1 [Example 14]
- Degree of order S (at room temp.) [1, 4]: 0.77
- Solubility L (at room temp.) [2, 4]: 0.7%

SMILES: CCCCC(CC)CSc1nnc(-c2ccc(N=Nc3ccc(N=Nc4ccc(N(C)CCCC)cc4)c4ccccc34)cc2)s1 (stereo not drawn) [Example 15]
- Degree of order S (at room temp.) [1, 5]: 0.8
- Solubility L (at room temp.) [2, 5]: > 5%

SMILES: CCCCCCCC(C)Sc1nnc(-c2ccc(N=Nc3ccc(N=Nc4ccc(N(C)CCCC)cc4)c4ccccc34)cc2)s1 (stereo not drawn) [Example 16]
- Degree of order S (at room temp.) [1, 5]: 0.81
- Solubility L (at room temp.) [2, 5]: > 5%

SMILES: CCCCC1CCC(c2ccc(COc3ccc(N=Nc4ccc(N=Nc5ccc(-c6nnc(SCC(CC)CCCC)s6)cc5)c5ccccc45)c(C)c3)cc2)CC1 (stereo not drawn) [Example 18]
- Degree of order S (at room temp.) [1, 5]: 0.82
- Solubility L (at room temp.) [2, 5]: 3.1%

SMILES: CCCCCCCC(C)Sc1nnc(-c2ccc(N=Nc3ccc(N=Nc4ccc(OCc5ccc(C6CCC(CCCC)CC6)cc5)cc4C)c4ccccc34)cc2)s1 (stereo not drawn) [Example 19]
- Degree of order S (at room temp.) [1, 4]: 0.77
- Degree of order S (at room temp.) [1, 5]: 0.84
- Solubility L (at room temp.) [2, 4]: > 5%
- Solubility L (at room temp.) [2, 5]: > 5%
